In test [1] the target is T1, Recombinant STAT3 protein (STAT3 (G127-I722)) (Homo sapiens, UniProt P40763).
T1 construct: Recombinant STAT3 protein (STAT3 (G127-I722))
Description: STAT3 Fluorescence Polarization (FP) Assay. In kind it is binding. The settings on record: probe 5-FAM-GpYLPQTV-NH2 2 nM, 45-minute incubation. The method, boiled down: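 Displacement of a 2 nM 5-FAM-labelled pY peptide (GpYLPQTV) from 25 nM recombinant STAT3 (G127-I722) was monitored by fluorescence polarization. Incubation lasted 45 min at room temperature in pH 7.4 HEPES buffer containing 1% DMSO.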
(Fluorescence polarisation rises when a labelled molecule tumbles more slowly, as on binding a larger partner.)

In test [2] the target is T2, Recombinant STAT6 protein (STAT6 (W123-T658)) (Homo sapiens, UniProt P42226).
T2 construct: Recombinant STAT6 protein (STAT6 (W123-T658))
T2 sequence (P42226 123-658): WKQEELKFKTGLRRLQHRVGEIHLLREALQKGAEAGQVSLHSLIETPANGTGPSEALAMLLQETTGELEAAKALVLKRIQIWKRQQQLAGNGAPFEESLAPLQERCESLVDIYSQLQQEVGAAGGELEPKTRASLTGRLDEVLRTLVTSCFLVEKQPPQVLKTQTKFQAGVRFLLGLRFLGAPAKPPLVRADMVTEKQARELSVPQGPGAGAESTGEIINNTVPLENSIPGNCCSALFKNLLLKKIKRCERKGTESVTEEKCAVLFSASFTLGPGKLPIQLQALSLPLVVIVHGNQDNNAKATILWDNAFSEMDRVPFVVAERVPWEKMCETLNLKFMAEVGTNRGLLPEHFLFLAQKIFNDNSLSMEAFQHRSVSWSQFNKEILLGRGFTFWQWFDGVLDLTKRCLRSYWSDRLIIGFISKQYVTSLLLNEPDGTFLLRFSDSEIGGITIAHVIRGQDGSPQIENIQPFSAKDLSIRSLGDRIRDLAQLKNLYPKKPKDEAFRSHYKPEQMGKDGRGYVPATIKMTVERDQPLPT
The experiment in a line: STAT6 Fluorescence Polarization (FP) Assay. To be noted: probe 5-FAM-Ap[…]-NH2 2 nM, 45-minute incubation. Format: binding. The method, boiled down:
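Serially diluted compounds received a premix of STAT6 (W123-T658, 250 nM) and 5-FAM peptide probe (2 nM) in pH 7.4 HEPES buffer containing DTT and Tween 20. Following 45 min at room temperature, FP was recorded. IC50s were fitted by nonlinear regression; values are binned A (≤300 nM), B (>300-3000 nM), C (>3-30 μM), D (>30 μM).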

[3] abbreviates: STAT3 25 nM, read-out: STAT3 (FP assay IC50).
The mark [4] stands for this setting: STAT6 250 nM, read-out: STAT6 (FP assay IC50).
Where [5] appears, read: STAT3 (G127-I722) 25 nM, read-out: STAT3 (FP assay IC50 class).
[6] abbreviates: STAT6 (W123-T658) 250 nM, read-out: STAT6 (FP assay IC50 class).

Molecules are shown by their SMILES. Like-named read-outs stand apart in the source and are kept apart here.

T1 sequence (P40763 127-722): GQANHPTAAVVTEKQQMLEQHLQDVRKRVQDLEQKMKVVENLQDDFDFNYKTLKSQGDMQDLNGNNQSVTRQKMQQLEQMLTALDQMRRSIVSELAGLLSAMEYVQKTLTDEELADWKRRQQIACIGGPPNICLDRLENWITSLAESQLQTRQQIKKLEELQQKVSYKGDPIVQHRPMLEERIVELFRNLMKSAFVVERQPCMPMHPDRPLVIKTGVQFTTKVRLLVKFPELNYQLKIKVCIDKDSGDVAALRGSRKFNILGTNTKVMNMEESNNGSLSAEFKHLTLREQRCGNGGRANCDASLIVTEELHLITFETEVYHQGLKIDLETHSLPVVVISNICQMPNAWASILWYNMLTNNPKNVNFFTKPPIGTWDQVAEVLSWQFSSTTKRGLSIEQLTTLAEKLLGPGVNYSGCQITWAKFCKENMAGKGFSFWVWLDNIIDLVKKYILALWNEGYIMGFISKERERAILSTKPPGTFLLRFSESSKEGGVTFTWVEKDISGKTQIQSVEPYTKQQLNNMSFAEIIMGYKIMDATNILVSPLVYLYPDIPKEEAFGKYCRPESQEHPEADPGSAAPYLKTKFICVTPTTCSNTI

On to `CN(C(=O)[C@@H]1CC[C@@H]2CCC[C@H](NC(=O)c3cc4cc(C(F)(F)P(=O)(O)O)ccc4s3)C(=O)N21)c1ccccc1` [Compound 111, (Difluoro(2-(((3S,6S,9aS)-3-(methyl(phenyl)carbamoyl)-5-oxooctahydro-1H-pyrrolo[1,2-a]azepin-6-yl)carbamoyl)benzo[b]thiophen-5-yl)methyl)phosphonic acid], for which the IC50 – broadly, the point on the concentration scale where inhibition reaches its midpoint – in test [1] (setting [3]) lay within 1 to 10 µM; in test [2] (setting [4]), 0.3 to 3 µM.
Regarding `O=C(N[C@H]1CCC[C@H]2CC[C@@H](C(=O)N3CCN(c4cccnc4)CC34CC4)N2C1=O)c1cc2cc(C(F)(F)P(=O)(O)O)ccc2s1` [Compound 1125, (difluoro(2-(((3S,6S,9aS)-5-oxo-3-(7-(pyridin-3-yl)-4,7-diazaspiro[2.5]octane-4-carbonyl)octahydro-1H-pyrrolo[1,2-a]azepin-6-yl)carbamoyl)benzo[b]thiophen-5-yl)methyl)phosphonic acid], the IC50 in test [1] (setting [5]) was less than 0.1 µM; in test [2] (setting [6]) it was 0.3 to 3 µM.
For `CN(C)c1cncc(C2CN(C(=O)[C@@H]3CC[C@@H]4CCC[C@H](NC(=O)c5cc6cc([C@H](F)P(=O)(O)O)ccc6s5)C(=O)N43)C2)c1Cl` (single isomer, unassigned) [Compound 713] the same measures were 0.1 to 1 µM and 3 to 30 µM.
The corresponding values for `CC(=O)N1CCOC2(C1)CN(C(=O)[C@@H]1CC[C@@H]3CCC[C@H](NC(=O)c4cc5cc(C(F)P(=O)(O)O)ccc5s4)C(=O)N31)C2` (stereo partly drawn) [Compound 770, ((2-(((3S,6S,9aS)-3-(8-acetyl-5-oxa-2,8-diazaspiro[3.5]nonane-2-carbonyl)-5-oxooctahydro-1H-pyrrolo[1,2-a]azepin-6-yl)carbamoyl)benzo [b]thiophen-5-yl)fluoromethyl) phosphonic acid] are 1 to 10 µM and 3 to 30 µM.
For `O=C(N[C@H]1CCCC[C@H]2CC[C@@H](C(=O)N3CC(c4ccc(=O)[nH]c4)C3)N2C1=O)c1cc2cc(C(F)(F)P(=O)(O)O)ccc2s1` [Compound 816, (difluoro(2-(((3S,6S,10aS)-5-oxo-3-(3-(6-oxo-1,6-dihydropyridin-3-yl)azetidine-1-carbonyl)decahydropyrrolo[1,2-a]azocin-6-yl)carbamoyl)benzo [b]thiophen-5-yl)methyl) phosphonic acid] the same measures were 0.1 to 1 µM and 3 to 30 µM.
On to `O=C(N[C@H]1CCCC[C@H]2CC[C@@H](C(=O)N3C[C@@H](c4ccccc4)CC34CC4)N2C1=O)c1cc2cc(C(F)(F)P(=O)(O)O)ccc2s1` (single isomer, unassigned) [Compound 889], for which the IC50 is 1 to 10 µM in test [1] (setting [5]) and no more than 0.3 µM in test [2] (setting [6]).
Consider `O=C(N[C@H]1CCCC[C@H]2CC[C@@H](C(=O)NC(CO)Cc3ccccc3)N2C1=O)c1cc2cc(C(F)(F)P(=O)(O)O)ccc2s1` (stereo partly drawn) [Compound 98, (difluoro(2-(((3S,6S,10aS)-3-((1-hydroxy-3-phenylpropan-2-yl)carbamoyl)-5-oxodecahydropyrrolo [1,2-a]azocin-6-yl)carbamoyl)benzo[b]thiophen-5-yl)methyl) phosphonic acid], for which the IC50 in test [1] (setting [3]) fell in the range of 0.1 to 1 µM; in test [2] (setting [4]) it was 3 to 30 µM.
Turning to `CC[C@@H]1CC[C@H](NC(=O)c2cc3cc([C@H](F)P(=O)(O)O)ccc3s2)C(=O)N2[C@H](CC[C@H]2C(=O)N2CC(c3cnccc3N3CCC3)C2)C1` [Compound 931, ((R)-(2-(((3S,6S,9R,10aR)-3-(3-(4-(azetidin-1-yl)pyridin-3-yl)azetidine-1-carbonyl)-9-ethyl-5-oxodecahydropyrrolo [1,2-a]azocin-6-yl)carbamoyl)benzo [b]thiophen-5-yl)fluoromethyl) phosphonic acid], the IC50 was less than 0.1 µM in test [1] (setting [5]) and 0.3 to 3 µM in test [2] (setting [6]).
The corresponding values for `CN(Cc1cc(=O)[nH]c2ccccc12)C(=O)[C@@H]1CC[C@@H]2CCCC[C@H](NC(=O)c3cc4cc(C(F)(F)P(=O)(O)O)ccc4s3)C(=O)N21` [Compound 795, (difluoro(2-(((3S,6S,10aS)-3-(methyl((2-oxo-1,2-dihydroquinolin-4-yl)methyl)carbamoyl)-5-oxodecahydropyrrolo [1,2-a]azocin-6-yl)carbamoyl)benzo [b]thiophen-5-yl)methyl) phosphonic acid] are 0.1 to 1 µM and 0.3 to 3 µM.
Regarding `O=C(N[C@H]1CCCC[C@H]2CC[C@@H](C(=O)N3CC(c4c[nH]cn4)C3)N2C1=O)c1cc2cc(C(F)(F)P(=O)(O)O)ccc2s1` [Compound 67, ((2-(((3S,6S,10aS)-3-(3-(1H-imidazol-4-yl)azetidine-1-carbonyl)-5-oxodecahydro-pyrrolo[1,2-a]azocin-6-yl)carbamoyl)benzo[b]thiophen-5-yl)difluoromethyl) phosphonic acid], the IC50 in test [1] (setting [3]) is less than 0.1 µM; in test [2] (setting [4]), 0.3 to 3 µM.
`O=C(N[C@H]1CCCC[C@H]2CC[C@@H](C(=O)N3Cc4cccnc4C3)N2C1=O)c1cc2cc(C(F)(F)P(=O)(O)O)ccc2s1` [Compound 801, ((2-(((3S,6S,10aS)-3-(6,7-dihydro-5H-pyrrolo[3,4-b]pyridine-6-carbonyl)-5-oxodecahydropyrrolo [1,2-a]azocin-6-yl)carbamoyl)benzo [b]thiophen-5-yl)difluoromethyl) phosphonic acid]: the IC50 in test [1] (setting [5]) lay in the range of 0.1 to 1 µM; in test [2] (setting [6]), 3 to 30 µM.
For `O=C(N[C@H]1CCCC[C@H]2CC[C@@H](C(=O)NCc3cnc4[nH]cnc4c3)N2C1=O)c1cc2cc(CP(=O)(O)O)ccc2s1` [Compound 640, ((2-(((3S,6S,10aS)-3-(((3H-imidazo[4,5-b]pyridin-6-yl)methyl)carbamoyl)-5-oxodecahydropyrrolo [1,2-a]azocin-6-yl)carbamoyl)benzo [b]thiophen-5-yl)methyl) phosphonic acid] the same measures were 0.1 to 1 µM and 3 to 30 µM.
For `CCOc1cc(C2CN(C(=O)[C@@H]3CC[C@@H]4CCC[C@H](NC(=O)c5cc6cc([C@@H](F)P(=O)(O)O)ccc6s5)C(=O)N43)C2)ccn1` (single isomer, unassigned) [Compound 709] the same measures were 0.1 to 1 µM and 3 to 30 µM.
For `N#C[C@@H]1[C@@H](c2cccnc2)CN(C(=O)[C@@H]2CC[C@@H]3CCCC[C@H](NC(=O)c4cc5cc([C@H](F)P(=O)(O)O)ccc5s4)C(=O)N32)C12CC2` (single isomer, unassigned) [Compound 839] the same measures were 1 to 10 µM and no more than 0.3 µM.
Regarding `Cn1ccc(C2CCN(C(=O)[C@@H]3CC[C@@H]4CCCC[C@H](NC(=O)c5ccc6ccc(C(F)P(=O)(O)O)cc6c5)C(=O)N43)C2)cc1=O` (stereo partly drawn) [Compound 899, (fluoro(7-(((3S,6S,10aS)-3-(3-(1-methyl-2-oxo-1,2-dihydropyridin-4-yl)pyrrolidine-1-carbonyl)-5-oxodecahydropyrrolo [1,2-a]azocin-6-yl)carbamoyl)naphthalen-2-yl)methyl) phosphonic acid], the IC50 in test [1] (setting [5]) was 1 to 10 µM; in test [2] (setting [6]), 0.3 to 3 µM.
Take `CS(=O)(=O)NC1CN(C(=O)[C@@H]2CC[C@@H]3CCCC[C@H](NC(=O)c4cc5cc(C(F)(F)P(=O)(O)O)ccc5s4)C(=O)N32)C1` [Compound 787, (difluoro(2-(((3S,6S,10aS)-3-(3-(methylsulfonamido)azetidine-1-carbonyl)-5-oxodecahydropyrrolo [1,2-a]azocin-6-yl)carbamoyl)benzo [b]thiophen-5-yl)methyl) phosphonic acid]: the IC50 in test [1] (setting [5]) was less than 0.1 µM; in test [2] (setting [6]), 0.3 to 3 µM.
For `COC[C@@H]1CCN1c1ncncc1C1CN(C(=O)[C@@H]2CC[C@@H]3CCC[C@H](NC(=O)c4cc5cc(CP(=O)(O)O)ccc5s4)C(=O)N32)C1` [Compound 675, ((2-(((3S,6S,9aS)-3-(3-(4-((S)-2-(methoxymethyl)azetidin-1-yl)pyrimidin-5-yl)azetidine-1-carbonyl)-5-oxooctahydro-1H-pyrrolo[1,2-a]azepin-6-yl)carbamoyl)benzo [b]thiophen-5-yl)methyl) phosphonic acid] the same measures were less than 0.1 µM and 3 to 30 µM.
As for `O=C(N[C@H]1CCC[C@H]2CC[C@@H](C(=O)N3CC(n4cccn4)C3)N2C1=O)c1cc2cc(C(F)P(=O)(O)O)ccc2s1` (stereo partly drawn) [Compound 613, ((2-(((3S,6S,9aS)-3-(3-(1H-pyrazol-1-yl)azetidine-1-carbonyl)-5-oxooctahydro-1H-pyrrolo[1,2-a]azepin-6-yl)carbamoyl)benzo [b]thiophen-5-yl)fluoromethyl) phosphonic acid], the results for the IC50 in test [1] (setting [5]) and in test [2] (setting [6]) were 0.1 to 1 µM and 3 to 30 µM, respectively.

The values are drawn from patent publication US20250215029A1 (Recludix Pharma, Inc., priority 2022, published 2025).
